{"source": "patent US20030134329A1", "about": "“Cross-species bioactive peptides” (priority 2001, published 2003)", "key": {"[1]": {"system": "FLO11 promoter (PFLO11) fused to the neo gene", "assay": "PFLO11-neo reporter selection: G418 resistance on YPD", "format": "cell-based, S. cerevisiae", "conditions": "strain MY1560, YPD + 100 μg/ml G418", "excerpt": "To identify peptides that promote invasion we used S. cerevisiae strain MY1560 (MATα/MATαΔ::LEU2 ura3Δ::PFLO11-neo/ura3Δ0 leu2Δ0/leu2Δ0 trp1Δ0::hisG/trp1Δ10::hisG his3Δ0::hisG/his3Δ0::hisG). This strain contains the FLO11 promoter (PFLO11) fused to the neo gene conferring resistance to the drug G418. FLO11 is a cell-surface flocculin required for pseudohyphal and invasive growth in S. cerevisiae. […] Thus, altered FLO11 expression can be used as an indicator of an altered invasion phenotype.\nIt was empirically determined that the wild type MY1560 strain (untransformed or transformed with a plasmid representing the peptide library staph nuclease scaffold) is unable to grow on YPD media supplemented with 100 μg/ml G418. In contrast, hyperinvasive strains are resistant to this concentration of the drug and form colonies on G418-supplemented YPD media. Thus, transformation of this strain with an invasion-promoting peptide should render the cells capable of growing on G418-supplemented YPD media. […]"}, "FLO11": {"system": "FLO11", "assay": "PFLO11-lacZ reporter, β-galactosidase activity", "format": "cell-based, S. cerevisiae", "conditions": "Table 1, strain MY1405 with plasmid MB1339, control pTCN23 = 1.0", "excerpt": "Transformation of S. cerevisiae was by lithium acetate/single-stranded carrier DNA/polyethylene glycol (LiAc/ss-DNA/PEG) protocol (see, e.g., Gietz and Woods (1998), in: Methods in Microbiology, Chapter 26, Brown and Tuite, eds., Academic Press, New York; Agatep et al. (1998), TTO 1:P01525, Technical Tips Online at http://tto.trends.com) with a library of plasmids expressing unique random peptide sequences in the context of a Staphylococcal nuclease “scaffold” to generate more than 20 million independent Ura^+ transformants (Norman et al. (1999), Science 285:591-595). The transformants were replica-plated to YPD plates supplemented with […] G418 to select for clones with increased expression of the invasion-related reporter (FLO11) and consequent G418 resistance. Plates were incubated at 30° C. for 2-4 days and resistant clones were collected in pools (50 pools total) by scraping the colonies off each plate in a small volume of water. Plasmids were isolated as a pool (Hoffman and Winston (1986), Gene 57:267), transformed into E. coli, and re-transformed as a pool into the original selection strain, MY1560. Ura^+ transformants were again replica plated to YPD+100 μg/ml G418 plates. […] Positive clones were further tested for plasmid dependence by (1) examining the correlation between spontaneous loss of the peptide-expressing plasmid and loss of G418 resistance, and (2) recovering the plasmid from the yeast, retransforming into the original selection strain, and characterizing the G418 resistance. […] The remaining candidate peptides were characterized for their effects on expression of PFLO11-lacZ reporter constructs. This was performed by co-transforming the candidate plasmid into S. cerevisiae strain MY1405 (MATα ura3Δ0 his3Δ0::hisG trp1Δ0::hisG) which contains plasmid MB1339 [PFLO11-lacZ TRP1 […]] and measuring β-galactosidase activity."}}}
{"sequence": "GSNGCVSVSSSVTSFM [5-49, 3, invasion-promoting random peptide expressed in loop of Staphylococcal nuclease scaffold]", "values": [{"measurement": "PFLO11-neo Mediated G418^R", "setting": "[1]", "value": "+w"}, {"measurement": "FL011-lacZ (relative expression)", "setting": "FLO11", "value": 2.5}]}
